The values that follow come from patent publication US11247998B2, “Piperazine heteroaryl derivative, preparation method therefor and use of same in medicine” (priority 2017, dated 2022).

A short description of data set [1]: Effect on in vitro proliferation of HepG2 cells (CellTiter-Glo). The class given is cell-based. The conditions noted are these: human; HepG2 cells, 72 hours, CellTiter-Glo. As for the experimental part: Test Example 2. Effect of the Compound of the Present Invention on In Vitro Proliferation of HepG2 Cells
HepG2 cells in logarithmic growth phase were taken and digested with trypsin to prepare a cell suspension, which was incubated in a 96-well plate (transparent bottom white 96-well plate, PerkinElmer) at 6,000 cells/well, at 5% carbon dioxide, 37° C. for 16-20 hours. On Day 2, the compound was dissolved in pure DMSO at a concentration of 20 mM. The compound was diluted in 3-fold concentration gradient using an automatic pipetting station (Bravo), 8 concentration points for each compound, and the control well was DMSO. The compound formulated in DMSO at each concentration point was diluted 200-fold with EMEM (containing 10% FBS) medium. The cell culture plate inoculated on Day 1 was taken out. The medium in the wells was removed by a negative pressure suction device, and the formulated medium containing the compound at each concentration was added respectively to each well at 100 μl/well. The plate was incubated at 37° C. for 72 hours. On Day 5, the 96-well cell culture plate was taken out, and freshly formulated CellTiter Glo was added to each well at 100 μl/well. The 96-well plate was left to stand for 5-10 minutes, the bottom was then sealed with a white bottom sealing film (PerkinElmer). The plate was placed in the microplate reader to measure the luminescence signal. The CC50 value of the compound was calculated with Graphpad Prism software according to each concentration of the compound and the corresponding proliferation inhibition signal value.
The inhibition effect of the compound of the present invention on in vitro proliferation of HepG2 cells was determined by the above experiment.
In general terms: Cellular ATP, detected with luciferase, serves as a proxy for viable cell number.

A short description of data set [2]: Pharmacokinetics assay in rats after intragastrical administration (LC/MS/MS of plasma). The class given is in vivo. The conditions noted are these: both sexes, rat, plasma, po, SD rats, 2 mg/kg; for Vd/F: read-out: Apparent distribution volume Vz/F; for AUC: read-out: Area under curve AUC; for bioavailability: read-out: Bioavailability (%) F %; for CL/F: read-out: Clearance CLz/F; for half-life: read-out: Half-life T1/2 (converted); for Cmax: read-out: Plasma concentration Cmax; for MRT: read-out: Residence time MRT. Here is the method:
Pharmacokinetics assay of the compound of the present invention
Rats were used as test animals. The drug concentration in plasma at different time points was determined by LC/MS/MS method after intragastrical administration of the compound of Example 1, the compound of Example 2, the compound of Example 4, the compound of Example 6, the compound of Example 7, the compound of Example 11, the compound of Example 39, the compound of Example 42, the compound of Example 44, the compound of Example 45 and the compound of Example 47 to rats. The pharmacokinetic behavior and property of the compound of the present invention were studied and evaluated in rats.
44 Healthy adult SD rats (half male and half female, 4 rats/group) were purchased from Shanghai Jiesijie Laboratory Animal Co., LTD, with Certificate No.: SCXK (Shanghai) 2013-0006.
A certain amount of the test compound was weighed, and added with 5% by volume of DMSO, 5% by volume of tween 80 and 90% by volume of normal saline to prepare a 0.2 mg/mL colorless, clear and transparent solution.
After an overnight fast, SD rats were administrated intragastrically with the test compound at an administration dose of 2.0 mg/kg and an administration volume of 10.0 mL/kg.
The rats were intragastrically administrated the compound of Example 1, the compound of Example 2, the compound of Example 4, the compound of Example 6, the compound of Example 7, the compound of Example 11, the compound of Example 39, the compound of Example 42, the compound of Example 44, the compound of Example 45 and the compound of Example 47. 0.1 ml of blood was taken from the orbit before administration and at 0.5, 1.0, 2.0, 4.0, 6.0, 8.0, 11.0 and 24.0 hours after administration. The samples were stored in heparinized tubes, and centrifuged for 10 minutes at 3500 rpm to separate the blood plasma. The plasma samples were stored at −20° C. The rats were fed two hours after administration.
The content of the test compound in the plasma of rats after intragastrical administration of the test compound at different concentrations was determined: 25 μL of rat plasma at each time after administration was taken, added with 40 μL of the internal standard solution of camptothecin (100 ng/mL) and 200 μL of acetonitrile, vortex-mixed for 5 minutes, and centrifuged for 10 minutes (4000 rpm). 0.2 μL of the supernatant was taken from the plasma samples for LC/MS/MS analysis.

Data set [3] relates to HBV DNA replication in HepG2.2.15 cells. The data set is described as follows: In vitro anti-HBV activity test (quantitative assay of intracellular HBV DNA), HepG2.2.15 cells, quantitative PCR. Type of data set: cell-based, hepatitis B virus (HBV). The conditions noted are these: Hepatitis B virus, HBV DNA by quantitative PCR; for EC50: compound treatment Day 2 to Day 8; for Emax: read-out: Emax (effect value of the compound to maximally inhibit HBV DNA replication). Here is the method: In vitro anti-HBV activity test of the compound of the present invention (quantitative assay of intracellular HBV DNA)
HepG2.2.15 cell is a stable expression cell line that has integrated HBV genome.
Virus particles containing HBV DNA can be synthesized by replication, transcription and encapsidation in the cells, and then secreted. In this study, the quantitative analysis of HBV DNA produced by HepG2.2.15 in vitro proliferation was carried out by quantitative PCR method, thereby determining the activity of the compound of the present invention on inhibiting the HBV DNA replication by inhibiting the assembly of HBV capsid protein.
HepG2.2.15 cells were cultured in DMEM/high glucose medium (10% FBS, […] G418) and passaged every three days. On the day of the experiment, a cell suspension was prepared with fresh cell culture medium, and incubated in a 96-well plate (Corning, #3599) at 40,000 cells/well, at 5% carbon dioxide, 37° C. On Day 2, the compound was dissolved in pure DMSO at a concentration of 20 mM, and then the first concentration of 2 mM was formulated with DMSO, and diluted in 4-fold concentration gradient to 8 concentrations. A control well was added with 90 μl of DMSO. The compound solution was diluted 200-fold with DMEM/high glucose medium. The cell culture plate inoculated on Day 1 was taken out. The medium in the wells was removed by a negative pressure suction device, and the formulated medium containing the compound at each concentration was added respectively to each well at 200 μl/well. The plate was incubated at 37° C. for 72 hours. On Day 5, the medium of the cultured cells was replaced with fresh medium containing the same compound in the same way as Day 2, and then the plate was incubated at 37° C. for 72 hours. On Day 8, the cell culture plate was taken out, centrifuged at 300 g for 3 minutes, and the culture supernatant was collected at 200 μl/well. HBV DNA was extracted from the cell culture supernatant with Qiagen automatic DNA extraction device, and the specific method referred to the instructions of the reagents and instruments. Finally, the extracted DNA was eluted with DNA elution buffer at 100 μl/well. The extracted DNA was subjected to quantitative PCR analysis of HBV DNA using Hepatitis B virus nucleic acid quantitative detection kit (Triplex International Biosciences Co., Ltd.), and the specific method referred to the instruction of the kit. The quantitative standard curve was obtained with the standard sample provided in the kit, and the experiments were performed in parallel. Quantitative conversion of each sample was carried out according to the standard curve. Finally, the EC50 value of the compound was calculated with Graphpad Prism software according to each concentration of the compound and the corresponding DNA value.
The in vitro activity of the compound of the present invention on inhibiting the HBV DNA replication by inhibiting the assembly of HBV capsid protein was determined by the above experiment.

Turning to `C[C@H]1Cn2cnc(C(=O)N[C@H](C)C(F)(F)F)c2CN1C(=O)Nc1ccc(F)c(F)c1` [Example 6, (S)—N^7-(3,4-Difluorophenyl)-6-methyl-N^1-((R)-1,1,1-trifluoropropan-2-yl)-5,6-dihydroimidazo[1,5-α]pyrazine-1,7(8H)-dicarboxamide], the 50% cytotoxic concentration (CC50) at 72 h in data set [1] was above 100000 nM. For the same molecule, in data set [2], the Vd/F was 2.16 ± 0.721 L/kg, the AUC is 12900 ± 6600 ng·h/mL, the bioavailability is 120% and the CL/F worked out at 3.22 ± 1.66 mL/min/kg. In addition, in data set [2], the half-life is 10.8 ± 8.1 h, the Cmax was 629 ± 167 ng/mL and the MRT was found to be 16.7 ± 10.1 h. In data set [3], the midpoint of the response, the EC50, lay at 4 nM and the Emax was found to be 100%.

On to `C[C@@H](NC(=O)c1cnn2c1CN(C(=O)Nc1ccc(F)c(F)c1)CC2)C(F)(F)F` [Example 2, (R)—N^5-(3,4-Difluorophenyl)-N^3-(1,1,1-trifluoropropan-2-yl)-6,7-dihydropyrazolo[1,5-α]pyrazine-3,5(4H)-dicarboxamide], for which the CC50 at 72 h in data set [1] was above 100000 nM. Further, in data set [2], the Vd/F was found to be 2.58 ± 0.638 L/kg, the AUC came out at 9250 ± 3310 ng·h/mL, the bioavailability turned out to be 107% and the CL/F came to 4 ± 1.48 mL/min/kg. Further, in data set [2], the half-life was 8.01 ± 2.26 h, the Cmax turned out to be 661 ± 200 ng/mL and the MRT came out at 11.5 ± 2.8 h. Moreover, in data set [3], the EC50 came to 30 nM and the Emax is 100%.

In turn, `C[C@@H]1CN(C(=O)Nc2ccc(F)c(C#N)c2)Cc2c(C(=O)N[C@H](C)C(F)(F)F)nnn21` [Example 44, (R)—N^5-(3-Cyano-4-fluorophenyl)-7-methyl-N^3-((R)-1,1,1-trifluoropropan-2-yl)-6,7-dihydro-[1,2,3]triazolo[1,5-α]pyrazine-3,5(4H)-dicarboxamide] had a CC50 at 72 h in data set [1] above 100000 nM. In addition, in data set [2], the Vd/F stood at 4.13 ± 0.26 L/kg, the AUC was determined as 11800 ± 3100 ng·h/mL, the bioavailability came out at 94% and the CL/F was found to be 2.99 ± 0.78 mL/min/kg. In data set [2], the half-life is 17 ± 5.05 h, the Cmax is 509 ± 39.4 ng/mL and the mean residence time (MRT) turned out to be 24.2 ± 7.38 h. In addition, in data set [3], the midpoint of the response, the EC50, lay at 60 nM and the Emax is 99%.

In turn, `C[C@H]1Cn2ncc(C(=O)NC3(C)COC3)c2CN1C(=O)Nc1cc(F)c(F)c(F)c1` [Example 14, (S)-6-Methyl-N^3-(3-methyloxetan-3-yl)-N^5-(3,4,5-trifluorophenyl)-6,7-dihydropyrazolo[1,5-a]pyrazine-3,5(4H)-dicarboxamide] yielded a CC50 at 72 h in data set [1] above 100000 nM. Besides, in data set [3], the EC50 came to 44 nM and the Emax came to 100%.

In data set [1], `C[C@H](NC(=O)c1ncn2c1CN(C(=O)Nc1ccc(F)c(F)c1)[C@@H](C)C2)C(F)(F)F` [Example 41, (S)—N^7-(3,4-Difluorophenyl)-6-methyl-N^1—((S)-1,1,1-trifluoropropan-2-yl)-5,6-dihydroimidazo[1,5-α]pyrazine-1,7(8H)-dicarboxamide] showed a CC50 at 72 h above 100000 nM. Also, in data set [3], the half-maximal effective concentration (EC50) was 24 nM and the Emax was found to be 100%.

Regarding `C[C@H]1Cn2cnc(C(=O)NC3(C)COC3)c2CN1C(=O)Nc1cc(F)c(F)c(F)c1` [Example 13, (S)-6-Methyl-N^1-(3-methyloxetan-3-yl)-N^7-(3,4,5-trifluorophenyl)-5,6-dihydroimidazo[1,5-α]pyrazine-1,7(8H)-dicarboxamide], the CC50 at 72 h in data set [1] was above 100000 nM. In data set [3], the EC50 turned out to be 35 nM and the Emax was found to be 100%.

Take `C[C@@H](NC(=O)c1cnn2c1CN(C(=O)Nc1cc(F)c(F)c(F)c1)CC2)C(F)(F)F` [Example 4, (R)—N^5-(3,4,5-Trifluorophenyl)-N^3-(1,1,1-trifluoropropan-2-yl)-6,7-dihydropyrazolo[1,5-α]pyrazine-3,5(4H)-dicarboxamide]: the CC50 at 72 h in data set [1] was above 100000 nM. Also, in data set [2], the Vd/F came out at 3.69 ± 0.532 L/kg, the area under the curve (AUC) is 7130 ± 2640 ng·h/mL, the bioavailability is 120% and the CL/F stood at 5.08 ± 1.48 mL/min/kg. In data set [2], the half-life is 8.8 ± 1.95 h, the Cmax was 425 ± 100 ng/mL and the mean residence time MRT was 13.1 ± 2.5 h. In data set [3], the EC50 amounted to 27 nM and the Emax worked out at 100%.

On to `C[C@@H](NC(=O)c1nnn2c1CN(C(=O)Nc1cc(F)c(F)c(F)c1)CC2)C(F)(F)F` [Example 17, (R)—N^5-(3,4,5-Trifluorophenyl)-N^3-(1,1,1-trifluoropropan-2-yl)-6,7-dihydro-[1,2,3]triazolo[1,5-α]pyrazine-3,5(4H)-dicarboxamide], for which, in data set [1], the CC50 at 72 h was above 100000 nM. In data set [3], the EC50 is 70 nM and the Emax came to 80%.

In data set [1], `C[C@H]1Cn2cnc(C(=O)NC(C)(C)C)c2CN1C(=O)Nc1ccc(F)c(F)c1` [Example 12, (S)—N^1-(Tert-butyl)-N^7-(3,4-difluorophenyl)-6-methyl-5,6-dihydroimidazo[1,5-α]pyrazine-1,7-(8H)-dicarboxamide] came in with a CC50 at 72 h above 100000 nM. For the same molecule, in data set [3], the response was half-maximal at 32 nM (EC50) and the Emax worked out at 100%.

A word on the CC50: it is the concentration that lowers cell viability or growth by half. Lower therefore signals harm at low concentration. Usually AUC stands for the area under the concentration-time curve, a measure of exposure. In general, MRT refers to a mean duration of stay, worked out from the concentration-time curve. The EC50 is the midpoint of the concentration-response curve. What is called Emax is the maximal effect, on the per cent scale that the assay sets.
